Data from patent US10167257B2, “Indole derivatives for use in medicine” (IOmet Pharma Ltd., priority 2014, dated 2019).

Key:
[1] = target: T1, TDO (A172 cells) (Homo sapiens, UniProt P48775); experiment: TDO cell-based assay (A172), kynurenine production; details: A172 human glioblastoma cells, 500 μM L-Trp, 48 h, kynurenine by absorbance at 490 nm
T1 construct: This assay utilised cancer cells which expressed either TDO or IDO; host or cells: A172 human glioblastoma cells
Excerpt: (§1) Two different types of assay were employed: 1. A TDO and IDO biochemical coupled assay which utilised recombinantly produced and purified TDO and IDO enzymes in combination with the enzyme formamidase. This coupled enzyme system allowed conversion of N-formylkynurenine produced by TDO or IDO activity to kynurenine which was then quantified by fluorescence following addition of Erhlich's Reagent. 2. A cell-based assay for detecting the effect of test compounds on kynurenine production in two different cancer cell types. This assay utilised cancer cells which expressed either TDO or IDO and as such was used as a means of testing compound activity at these two enzymes in a cell-based context. The protocols for these are set out below.
(§2) A172 human glioblastoma (ATCC) were grown in DMEM+2 mM L-glutamine medium supplemented with 10% foetal bovine serum and SKOV-3 ovary adenocarcinoma (ATCC) cells were grown in McCoys 5A+L-glutamax medium supplemented with 15% foetal bovine serum. On the day of assay, cells were detached using trypsin-EDTA (0.25% v/v), re-suspended in assay media (RPMI 1640 phenol red free+L-glutamine supplemented with 10% dialysed foetal bovine serum). A172 cells were seeded at 30K cells per well and SKOV-3 cells at 40K cells per well into 96-well plates containing test samples/vehicle control together with 500 μM L-Trp. Cells were then incubated for 48 h at 37° C., 5% CO2. In SK-OV-3 cells, IFNγ was also added at 500 ng/ml for the 48 h incubation in order to induce expression of IDO. Plates were centrifuged and the supernatant was removed and incubated for 5 min in the presence of 1% Erhlich's reagent. Kynurenine levels were then quantified by measuring absorbance at 490 nm.

[2] = target: T2, IDO (SKOV-3 cells) (Homo sapiens, UniProt P14902); experiment: IDO cell-based assay (SKOV-3, IFNγ-induced), kynurenine production; details: SKOV-3 ovary adenocarcinoma cells, IFNγ 500 ng/ml, 500 μM L-Trp, 48 h, kynurenine by absorbance at 490 nm
T2 construct: This assay utilised cancer cells which expressed either TDO or IDO; host or cells: SKOV-3 ovary adenocarcinoma cells, IFNγ-induced
Excerpt: as §1, §2

T2 sequence (P14902 whole entry): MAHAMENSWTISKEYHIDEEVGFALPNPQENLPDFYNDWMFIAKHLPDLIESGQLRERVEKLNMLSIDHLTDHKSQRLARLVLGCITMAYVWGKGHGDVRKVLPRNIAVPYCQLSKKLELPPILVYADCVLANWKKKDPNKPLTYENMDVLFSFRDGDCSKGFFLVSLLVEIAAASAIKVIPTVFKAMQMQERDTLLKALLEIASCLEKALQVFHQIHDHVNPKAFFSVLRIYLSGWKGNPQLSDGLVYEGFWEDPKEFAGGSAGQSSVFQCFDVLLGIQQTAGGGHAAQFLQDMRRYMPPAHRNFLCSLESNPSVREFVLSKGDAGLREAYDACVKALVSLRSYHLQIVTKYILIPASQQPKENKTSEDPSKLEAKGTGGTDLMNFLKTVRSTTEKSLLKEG
T1 sequence (P48775 whole entry): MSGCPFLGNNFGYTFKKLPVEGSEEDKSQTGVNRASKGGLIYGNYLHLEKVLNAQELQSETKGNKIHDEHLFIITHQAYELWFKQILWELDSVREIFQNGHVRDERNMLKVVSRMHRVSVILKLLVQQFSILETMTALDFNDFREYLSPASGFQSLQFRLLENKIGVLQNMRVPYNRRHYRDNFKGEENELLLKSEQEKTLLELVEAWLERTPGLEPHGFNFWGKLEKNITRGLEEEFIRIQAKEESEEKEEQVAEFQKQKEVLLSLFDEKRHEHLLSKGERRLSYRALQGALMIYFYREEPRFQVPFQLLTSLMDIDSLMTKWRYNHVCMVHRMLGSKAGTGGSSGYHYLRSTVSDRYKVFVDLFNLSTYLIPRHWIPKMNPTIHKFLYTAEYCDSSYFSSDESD

TDO cellular assay (A172) pIC50 [1]	IDO cellular assay (SKOV3) pIC50 [2]	SMILES
+ (+ = pIC50 4.50-<5.00)	+++ (+++ = pIC50 ≥5.50)	O=C(NC(CO)c1ccccc1)c1cc2cc(Cl)ccc2[nH]1 (stereo not shown) [Compound 92]
+ (+ = pIC50 4.50-<5.00)	+++ (+++ = pIC50 ≥5.50)	COCCN(C)C(=O)c1ccc(C(C)NC(=O)c2cc3cc(Cl)ccc3[nH]2)cc1 (stereo not shown) [Compound 93]
+ (+ = pIC50 4.50-<5.00)	++ (++ = pIC50 5.00-<5.50)	CC(NC(=O)c1cc2cc(Cl)ccc2[nH]1)C1CC1 (stereo not shown) [Compound 94]
− (− = pIC50 <4.50)	+ (+ = pIC50 4.50-<5.00)	CC(NC(=O)c1cc2cc(Cl)ccc2[nH]1)c1ccc(N2CCN(C)CC2)cc1 (stereo not shown) [Compound 95]
− (− = pIC50 <4.50)	+ (+ = pIC50 4.50-<5.00)	CC(NC(=O)c1cc2cc(Cl)ccc2[nH]1)c1ncc[nH]1 (stereo not shown) [Compound 96]
+ (+ = pIC50 4.50-<5.00)	++ (++ = pIC50 5.00-<5.50)	CC(NC(=O)c1cc2cc(Cl)ccc2[nH]1)c1cnoc1 (stereo not shown) [Compound 97]
− (− = pIC50 <4.50)	+++ (+++ = pIC50 ≥5.50)	CC(NC(=O)c1cc2cc(Cl)ccc2[nH]1)C1CCCC1 (stereo not shown) [Compound 98]
+ (+ = pIC50 4.50-<5.00)	+++ (+++ = pIC50 ≥5.50)	O=C(NC(c1ccccc1)C1CC1)c1cc2cc(Cl)ccc2[nH]1 (stereo not shown) [Compound 99]
++ (++ = pIC50 5.00-<5.50)	+++ (+++ = pIC50 ≥5.50)	COCCOc1ccc(C(C)NC(=O)c2cc3cc(Cl)ccc3[nH]2)cc1 (stereo not shown) [Compound 100]
+ (+ = pIC50 4.50-<5.00)	+++ (+++ = pIC50 ≥5.50)	CC(C)C(NC(=O)c1cc2cc(Cl)ccc2[nH]1)c1ccccc1 (stereo not shown) [Compound 101]
− (− = pIC50 <4.50)	+ (+ = pIC50 4.50-<5.00)	CC(NC(=O)c1cc2cc(Cl)ccc2[nH]1)c1ccc(OCCN(C)C)cc1 (stereo not shown) [Compound 102]
− (− = pIC50 <4.50)	+++ (+++ = pIC50 ≥5.50)	CC(NC(=O)c1cc2cc(Cl)ccc2[nH]1)C1CCOCC1 (stereo not shown) [Compound 103]
+ (+ = pIC50 4.50-<5.00)	++ (++ = pIC50 5.00-<5.50)	CC(NC(=O)c1cc2cc(Cl)ccc2[nH]1)c1ncco1 (stereo not shown) [Compound 104]
− (− = pIC50 <4.50)	+++ (+++ = pIC50 ≥5.50)	CC(=O)N1CCC(C(C)NC(=O)c2cc3cc(Cl)ccc3[nH]2)CC1 (stereo not shown) [Compound 105]
− (− = pIC50 <4.50)	+ (+ = pIC50 4.50-<5.00)	CNC(=O)c1ccc2[nH]c(C(=O)NC(C)c3ccccc3)cc2c1 (stereo not shown) [Compound 106]
− (− = pIC50 <4.50)	++ (++ = pIC50 5.00-<5.50)	Cc1ccnc(C(NC(=O)c2cc3cc(Cl)ccc3[nH]2)C2CC2)c1 (stereo not shown) [Compound 107]
− (− = pIC50 <4.50)	++ (++ = pIC50 5.00-<5.50)	O=C(NCC1CCCN(C(=O)C2CC2)C1)c1cc2cc(Cl)ccc2[nH]1 (stereo not shown) [Compound 108]
− (− = pIC50 <4.50)	++ (++ = pIC50 5.00-<5.50)	COc1cccc(-c2cc(CNC(=O)c3cc4cc(Cl)ccc4[nH]3)on2)c1 [Compound 109]
− (− = pIC50 <4.50)	++ (++ = pIC50 5.00-<5.50)	O=C(NCCc1nccs1)c1cc2cc(Cl)ccc2[nH]1 [Compound 110]
− (− = pIC50 <4.50)	++ (++ = pIC50 5.00-<5.50)	CC(NC(=O)c1cc2cc(Cl)ccc2[nH]1)C1CCN(S(C)(=O)=O)CC1 (stereo not shown) [Compound 111]
− (− = pIC50 <4.50)	+++ (+++ = pIC50 ≥5.50)	COc1cccc(-n2cc(CNC(=O)c3cc4cc(Cl)ccc4[nH]3)cn2)c1 [Compound 112]
− (− = pIC50 <4.50)	+++ (+++ = pIC50 ≥5.50)	COc1ccc(-c2noc(CNC(=O)c3cc4cc(Cl)ccc4[nH]3)n2)cc1OC [Compound 113]

TDO cellular assay (A172) pIC50 [1]	IDO cellular assay (SKOV3) pIC50 [2]	SMILES
− (− = pIC50 <4.50)	+++ (+++ = pIC50 ≥5.50)	CCC(NC(=O)c1cc2cc(Cl)ccc2[nH]1)c1ccccc1 (stereo not shown) [Compound 114]
+ (+ = pIC50 4.50-<5.00)	+++ (+++ = pIC50 ≥5.50)	CC(NC(=O)c1cc2cc(Cl)ccc2[nH]1)c1cnn(-c2ccccc2F)c1 (stereo not shown) [Compound 115]
++ (++ = pIC50 5.00-<5.50)	− (− = pIC50 <4.50)	O=C(NC1Cc2ccccc2C1)c1cc2cc(Cl)ccc2[nH]1 [Compound 116]
+ (+ = pIC50 4.50-<5.00)	++ (++ = pIC50 5.00-<5.50)	CCN(Cc1noc(CC(C)C)n1)C(=O)c1cc2cc(Cl)ccc2[nH]1 [Compound 117]
+ (+ = pIC50 4.50-<5.00)	++ (++ = pIC50 5.00-<5.50)	Cc1ccccc1C1CCN(CCNC(=O)c2cc3cc(Cl)ccc3[nH]2)C1 (stereo not shown) [Compound 118]
− (− = pIC50 <4.50)	+ (+ = pIC50 4.50-<5.00)	O=C(NC1CCCCC1O)c1cc2cc(Cl)ccc2[nH]1 (stereo not shown) [Compound 119]
− (− = pIC50 <4.50)	+++ (+++ = pIC50 ≥5.50)	Cc1nccc2c(NC(=O)c3cc4cc(F)ccc4[nH]3)cccc12 [Compound 120]
− (− = pIC50 <4.50)	+++ (+++ = pIC50 ≥5.50)	CC(NC(=O)c1cc2cc(Cl)ccc2[nH]1)c1nc(-c2ccccc2)no1 (stereo not shown) [Compound 121]
− (− = pIC50 <4.50)	++ (++ = pIC50 5.00-<5.50)	CC(CCNS(C)(=O)=O)NC(=O)c1cc2cc(Cl)ccc2[nH]1 (stereo not shown) [Compound 122]
+ (+ = pIC50 4.50-<5.00)	++ (++ = pIC50 5.00-<5.50)	C[C@H](NS(=O)(=O)c1cc2cc(F)ccc2[nH]1)c1ccccc1 [Compound 123]
− (− = pIC50 <4.50)	+++ (+++ = pIC50 ≥5.50)	CC(NC(=O)c1cc2cc(Cl)ccc2[nH]1)c1cnn(-c2ccccc2)c1 (stereo not shown) [Compound 124]
+ (+ = pIC50 4.50-<5.00)	+++ (+++ = pIC50 ≥5.50)	COc1cccc(-n2cc(C(C)NC(=O)c3cc4cc(Cl)ccc4[nH]3)cn2)c1 (stereo not shown) [Compound 125]
− (− = pIC50 <4.50)	+++ (+++ = pIC50 ≥5.50)	CC(C)c1noc(C(C)NC(=O)c2cc3cc(Cl)ccc3[nH]2)n1 (stereo not shown) [Compound 126]
− (− = pIC50 <4.50)	+ (+ = pIC50 4.50-<5.00)	C[C@@H](NS(=O)(=O)c1cc2cc(F)ccc2[nH]1)c1ccccc1 [Compound 127]
+ (+ = pIC50 4.50-<5.00)	+++ (+++ = pIC50 ≥5.50)	O=C(NC1(c2ccccc2)CC1)c1cc2cc(Cl)ccc2[nH]1 [Compound 128]
− (− = pIC50 <4.50)	++ (++ = pIC50 5.00-<5.50)	O=C(NCc1nc(-c2ccccc2)no1)c1cc2cc(Cl)ccc2[nH]1 [Compound 129]
− (− = pIC50 <4.50)	++ (++ = pIC50 5.00-<5.50)	COCCc1noc(C(C)NC(=O)c2cc3cc(Cl)ccc3[nH]2)n1 (stereo not shown) [Compound 130]
− (− = pIC50 <4.50)	+++ (+++ = pIC50 ≥5.50)	COc1ccc(-c2noc(C(C)NC(=O)c3cc4cc(Cl)ccc4[nH]3)n2)cc1OC (stereo not shown) [Compound 131]
+ (+ = pIC50 4.50-<5.00)	+++ (+++ = pIC50 ≥5.50)	O=C(NC1(c2ccccc2)CCC1)c1cc2cc(Cl)ccc2[nH]1 [Compound 132]
− (− = pIC50 <4.50)	+++ (+++ = pIC50 ≥5.50)	CC(NC(=O)c1cc2cc(Cl)ccc2[nH]1)c1cnn(C)c1 (stereo not shown) [Compound 133]
− (− = pIC50 <4.50)	+++ (+++ = pIC50 ≥5.50)	CC(NC(=O)c1cc2cc(Cl)ccc2[nH]1)c1noc(-c2ccccc2)n1 (stereo not shown) [Compound 134]
− (− = pIC50 <4.50)	+++ (+++ = pIC50 ≥5.50)	CC(NC(=O)c1cc2cc(Cl)ccc2[nH]1)c1cnn(C(C)C)c1 (stereo not shown) [Compound 135]
